{
  "source": "patent US20230390251A1",
  "about": "“METHODS OF TREATING RIBONUCLEOTIDE REDUCTASE-RELATED DISEASES WITH A RIBONUCLEOTIDE REDUCTASE INHIBITOR” (TAIHO PHARMACEUTICAL CO., LTD., priority 2020, published 2023)",
  "key": {"CFPAC-1 cells [1]": {"test_system": "CFPAC-1 cells", "assay": "Caspase-Glo 3/7 caspase induction assay in CFPAC-1 cells treated with siRNA against SLFN11", "format": "cell-based", "settings": "10 micro mol/L, 24 h; CFPAC-1 cells transfected with siRNA against SLFN11", "protocol": "(§1) A673 cells, NCI-H460 cells and CFPAC-1 cells were transfected with 1 nM siRNAs for 24 h using Lipofectaminet®RNAiMAX Reagent (Thermo Fisher Scientific Inc.) and then re-seeded onto a 96-well plate for cell proliferation assay and caspase induction assay and onto dishes for immunoblotting analysis. siRNAs were obtained from Thermo Fisher Scientific Inc. as follows: Silencer® Select Negative Control #1 siRNA (#4390843 used as siControl), SLFN11 Silencer® Select Pre-designed siRNA (#s40703 used as siSLFN11-1, #s40704 as siSLFN11-2, and #s40702 as siSLFN11-3).\n(§2) Caspase induction assay was performed in accordance with conventional methods, available in Hasako., et al., ibid. Briefly, the cells with siRNAs for 24 h were seeded onto 96 well plate, incubated for 24 h, and then treated with Compound A for 24 h. Caspase induction was detected by using the Caspase-Glo 3/7 assay (Promega)."}, "A673 cells [2]": {"test_system": "A673 cells", "assay": "Cell proliferation assay in A673 cells treated with siRNA against SLFN11", "format": "cell-based", "settings": "A673 Ewing sarcoma cells, siSLFN11 vs siControl, 3 days of exposure", "protocol": "as §1\n(§3) Cell proliferation assay was performed in accordance with conventional methods, available in Hasako, et al., ibid. Briefly, cells treated with siRNAs for 24 h were plated onto 96 well plate and incubated for 24 h, followed by 3 days of exposure to the compound A. After compound exposure, viable cells were detected by using the CellTiter-Glo luminescent cell viability assay (Promega)."}, "[3]": {"test_system": "11 sarcoma cell lines listed in Table 1", "assay": "Cell proliferation assay (CellTiter-Glo) in 11 sarcoma cell lines, correlated with SLFN11 mRNA expression", "format": "cell-based", "settings": "100 micro mol/L Compound A, 3 days of exposure, Pearson's correlation (P<0.05)", "protocol": "Cell proliferation assay was performed in accordance with conventional methods, available in Hasako. S., et al. Mol Cancer Ther 17, 1648-1658 (2018). Briefly, cells were plated and incubated for 1 day, followed by 3 days of exposure to the compound. After exposure to Compound A, viable cells were detected by using the CellTiter-Glo luminescent cell viability assay (Promega). The experiment was performed in triplicates.\nCorrelation analysis of SLFN11 expression and Compound A cytotoxicity was performed using Pearson's correlation coefficient (P<0.05) in JMP 13 software. The gene expression data of cell lines were available online CCLE (http://www.broadinstitute.org/ccle/home). Compound A cytotoxicity data from 11 cell lines in Table 1 were used for correlation analysis (data for correlation was not shown).\nThe correlation between SLFN11 mRNA expression and the relative growth percent of cells at 100 micro mol/L treatment by Compound A was analyzed in 11 sarcoma cell lines listed in Table 1."}, "A673 cells [4]": {"test_system": "A673 cells", "assay": "Caspase-Glo 3/7 caspase induction assay in A673 cells treated with siRNA against SLFN11", "format": "cell-based", "settings": "10 micro mol/L, 24 h; A673 cells transfected with siRNA against SLFN11", "protocol": "as §1, §2"}, "NCI-H460 cells": {"test_system": "NCI-H460 cells", "assay": "Cell proliferation assay in NCI-H460 cells treated with siRNA against SLFN11", "format": "cell-based", "settings": "non-small cell lung cancer cell line NCI-H460, siSLFN11 vs siControl, 3 days of exposure", "protocol": "as §1, §3"}, "CFPAC-1 cells [5]": {"test_system": "CFPAC-1 cells", "assay": "Cell proliferation assay in CFPAC-1 cells treated with siRNA against SLFN11", "format": "cell-based", "settings": "pancreatic cancer cell line CFPAC-1, siSLFN11 vs siControl, 3 days of exposure", "protocol": "as §1, §3"}, "[6]": {"assay": "Body weight change as index of toxicity in MV-4-11 tumor-bearing nude mice", "format": "in vivo"}},
  "data": [
    {"smiles": "Cc1ccc(F)c([C@@H](C)[C@H](NS(=O)(=O)c2ccc(Cl)cc2C(N)=O)c2n[nH]c(=O)o2)c1C", "note": "[Compound A, 5-chloro-2-(N-((1S,2R)-2-(6-fluoro-2,3-dimethylphenyl)-1-(5-oxo-4,5-dihydro-1,3,4-oxadiazol-2-yl)propyl)sulfamoyl)benzamide]", "values": [
      {"measurement": "compound-induced caspase-3/7 activation after SLFN11 knockdown", "setting": "CFPAC-1 cells [1]", "value": "suppression"},
      {"measurement": "effect of SLFN11 knockdown with siRNA on the cytotoxic effect", "setting": "A673 cells [2]", "value": "SLFN11 knockdown significantly suppressed the cytotoxic effect"},
      {"measurement": "correlation between SLFN11 mRNA expression and relative cell growth (%)", "setting": "[3]", "value": "a significant correlation"},
      {"measurement": "compound-induced caspase-3/7 activation after SLFN11 knockdown", "setting": "A673 cells [4]", "value": "suppression"},
      {"measurement": "effect of SLFN11 knockdown with siRNA on the cytotoxic effect", "setting": "NCI-H460 cells", "value": "SLFN11 knockdown significantly suppressed the cytotoxic effect"},
      {"measurement": "effect of SLFN11 knockdown with siRNA on the cytotoxic effect", "setting": "CFPAC-1 cells [5]", "value": "SLFN11 knockdown significantly suppressed the cytotoxic effect"},
      {"measurement": "recovery indicated by BW change %, Group 3QW1-1 compared with Group C-1", "setting": "[6]; 3QW (consecutive) 233 mg/kg/day vs continuous 100 mg/kg/day, total dosage 1400 mg/kg, Day 15, t-test p<0.05", "value": "better with a statistically significant difference relative to Group C-1"},
      {"measurement": "recovery indicated by BW change %, Group 3QW1-2 compared with Group C-2", "setting": "[6]; 3QW (consecutive) 350 mg/kg/day vs continuous 150 mg/kg/day, total dosage 2100 mg/kg, Day 15, t-test p<0.05", "value": "better with a statistically significant difference relative to Group C-2"},
      {"measurement": "recovery indicated by BW change %, Group 3QW2-1 compared with Group C-1", "setting": "[6]; 3QW (every other day) 233 mg/kg/day vs continuous 100 mg/kg/day, total dosage 1400 mg/kg, Day 15, t-test p<0.05", "value": "better with a statistically significant difference relative to Group C-1"},
      {"measurement": "recovery indicated by BW change %, Group 3QW2-2 compared with Group C-2", "setting": "[6]; 3QW (every other day) 350 mg/kg/day vs continuous 150 mg/kg/day, total dosage 2100 mg/kg, Day 15, t-test p<0.05", "value": "better with a statistically significant difference relative to Group C-2"},
      {"measurement": "body weight loss (BW change %)", "setting": "[6]; 3QW Dosing Group 1, 233 or 350 mg/kg/day orally Days 1-3 and 8-10", "value": "body weight loss was observed"},
      {"measurement": "body weight loss (BW change %)", "setting": "[6]; 3QW Dosing Group 2, 233 or 350 mg/kg/day orally Days 1, 3, 5, 8, 10 and 12", "value": "body weight loss was observed"},
      {"measurement": "BW change %, Group 5QW2-1 compared with Group C-1", "setting": "[6]; 5QW (2 on/1 off/3 on/1 off) 140 mg/kg/day vs continuous 100 mg/kg/day, total dosage 1400 mg/kg, Day 15", "value": "a statistically significant difference could not be observed"},
      {"measurement": "recovery indicated by BW change %, Group 5QW2-2 compared with Group C-2", "setting": "[6]; 5QW (2 on/1 off/3 on/1 off) 210 mg/kg/day vs continuous 150 mg/kg/day, total dosage 2100 mg/kg, Day 15, t-test p<0.05", "value": "better with a statistically significant difference relative to Group C-2"},
      {"measurement": "recovery indicated by BW change %, Group 5QW1-1 compared with Group C-1", "setting": "[6]; 5QW (consecutive) 140 mg/kg/day vs continuous 100 mg/kg/day, total dosage 1400 mg/kg, Day 15, t-test p<0.05", "value": "better with a statistically significant difference relative to Group C-1"},
      {"measurement": "recovery indicated by BW change %, Group 5QW1-2 compared with Group C-2", "setting": "[6]; 5QW (consecutive) 210 mg/kg/day vs continuous 150 mg/kg/day, total dosage 2100 mg/kg, Day 15, t-test p<0.05", "value": "better with a statistically significant difference relative to Group C-2"},
      {"measurement": "body weight loss (BW change %)", "setting": "[6]; 5QW Dosing Group 1, 140 or 210 mg/kg/day orally Days 1-5 and 8-12", "value": "body weight loss was observed"},
      {"measurement": "body weight loss (BW change %)", "setting": "[6]; 5QW Dosing Group 2, 140 or 210 mg/kg/day orally Days 1-2, 4-6, 8-9 and 11-13", "value": "body weight loss was observed"},
      {"measurement": "body weight loss (BW change %)", "setting": "[6]; Continuous Dosing Group, 100 or 150 mg/kg/day orally once daily Day 1 to Day 14", "value": "body weight loss was observed"},
      {"measurement": "BW change %, Group QOD-1 compared with Group C-1", "setting": "[6]; QOD 200 mg/kg/day vs continuous 100 mg/kg/day, total dosage 1400 mg/kg", "value": "a statistically significant difference could not be observed"},
      {"measurement": "recovery indicated by BW change %, Group QOD-2 compared with Group C-2", "setting": "[6]; QOD 300 mg/kg/day vs continuous 150 mg/kg/day, total dosage 2100 mg/kg, Day 15, t-test p<0.05", "value": "better with a statistically significant difference compared with Group C-2"},
      {"measurement": "body weight loss (BW change %)", "setting": "[6]; QOD Dosing Group, 200 or 300 mg/kg/day orally every other day for two weeks", "value": "body weight loss was observed"},
      {"measurement": "recovery indicated by BW change %, Group QW-1 compared with Group C-1", "setting": "[6]; QW 700 mg/kg/day vs continuous 100 mg/kg/day, total dosage 1400 mg/kg, Day 15, t-test p<0.05", "value": "better with a statistically significant difference than Group C-1"},
      {"measurement": "recovery indicated by BW change %, Group QW-2 compared with Group C-2", "setting": "[6]; QW 1050 mg/kg/day vs continuous 150 mg/kg/day, total dosage 2100 mg/kg, Day 15, t-test p<0.05", "value": "better with Group QW-2 having a statistically significant difference relative to Group C-2"},
      {"measurement": "body weight loss (BW change %)", "setting": "[6]; QW Dosing Group, 700 or 1050 mg/kg/day orally once per week for two weeks", "value": "body weight loss was observed"}
    ]}
  ]
}
